Measurements reported in ChEMBL document CHEMBL1275511, “Molecular and biochemical characterization of SHV-56, a novel inhibitor-resistant beta-lactamase from Klebsiella pneumoniae” (Antimicrob Agents Chemother, 2008).
In brackets after ≈: the same amount, converted by molar mass.

How the values were obtained:
Klebsiella pneumoniae [1] = assay: Antimicrobial activity against Klebsiella pneumoniae Kp2792 expressing beta-lactamase SHV-56 by agar dilution method; format: functional
Escherichia coli [2] = assay: Antimicrobial activity against Escherichia coli JM109 by agar dilution method; format: functional
Escherichia coli [3] = assay: Activity of Escherichia coli Inhibitor-resistant beta-lactamase SHV-56; settings: JM109
Escherichia coli [4] = assay: Antimicrobial activity against Escherichia coli JM109 harboring pE1 plasmid expressing beta-lactamase SHV-11 by agar dilution method; format: functional
Escherichia coli [5] = assay: Antimicrobial activity against Escherichia coli JM109 harboring pSC1 plasmid expressing beta-lactamase SHV-56 by agar dilution method; format: functional
Escherichia coli [6] = assay: Antimicrobial activity against Escherichia coli JM109 harboring pE1MD plasmid expressing beta-lactamase SHV-56 by agar dilution method; format: functional
Escherichia coli [7] = assay: Antimicrobial activity against Escherichia coli JM109 harboring pE1 plasmid expressing beta-lactamase SHV-11 by agar dilution method in presence of Sulbactam; format: functional
Escherichia coli [8] = assay: Antimicrobial activity against Escherichia coli JM109 harboring pSC1 plasmid expressing beta-lactamase SHV-56 by agar dilution method in presence of Sulbactam; format: functional
Escherichia coli [9] = assay: Antimicrobial activity against Escherichia coli JM109 harboring pE1MD plasmid expressing beta-lactamase SHV-56 by agar dilution method in presence of Sulbactam; format: functional
Klebsiella pneumoniae [10] = assay: microbe, parasite or virus in culture; settings: Kp2792
Escherichia coli [11] = assay: Ratio of Kcat to Km for Escherichia coli Inhibitor-resistant beta-lactamase SHV-56; settings: JM109
Klebsiella pneumoniae [12] = assay: Antimicrobial activity against Klebsiella pneumoniae Kp2792 expressing beta-lactamase SHV-56 by agar dilution method in presence of Tazobactam; format: functional
Escherichia coli [13] = assay: Antimicrobial activity against Escherichia coli JM109 harboring pE1 plasmid expressing beta-lactamase SHV-11 by agar dilution method in presence of Tazobactam; format: functional
Escherichia coli [14] = assay: Antimicrobial activity against Escherichia coli JM109 harboring pSC1 plasmid expressing beta-lactamase SHV-56 by agar dilution method in presence of Tazobactam; format: functional
Escherichia coli [15] = assay: Antimicrobial activity against Escherichia coli JM109 harboring pE1MD plasmid expressing beta-lactamase SHV-56 by agar dilution method in presence of Tazobactam; format: functional
Escherichia coli [16] = assay: Antimicrobial activity against Escherichia coli JM109 by agar dilution method in presence of Tazobactam; format: functional
[17] = Inhibition of Escherichia coli Inhibitor-resistant beta-lactamase SHV-56; design: species or system JM109
Klebsiella pneumoniae [18] = assay: Antimicrobial activity against Klebsiella pneumoniae Kp2792 expressing beta-lactamase SHV-56 by agar dilution method in presence of clavulanic acid; format: functional
Escherichia coli [19] = assay: Antimicrobial activity against Escherichia coli JM109 harboring pE1 plasmid expressing beta-lactamase SHV-11 by agar dilution method in presence of clavulanic acid; format: functional
Escherichia coli [20] = assay: Antimicrobial activity against Escherichia coli JM109 harboring pSC1 plasmid expressing beta-lactamase SHV-56 by agar dilution method in presence of clavulanic acid; format: functional
Escherichia coli [21] = assay: Antimicrobial activity against Escherichia coli JM109 harboring pE1MD plasmid expressing beta-lactamase SHV-56 by agar dilution method in presence of clavulanic acid; format: functional
Escherichia coli [22] = assay: Antimicrobial activity against Escherichia coli JM109 by agar dilution method in presence of clavulanic acid; format: functional
[23] = substrate: CC(=O)OCC1=C(C(=O)O)N2C(=O)[C@@H](NC(=O)Cc3cccs3)[C@H]2SC1; assay: (§1) Activity of Escherichia coli beta-lactamase SHV-11; settings: JM109
[24] = substrate: CC(C)(O/N=C(\C(=O)N[C@@H]1C(=O)N2C(C(=O)[O-])=C(C[n+]3ccccc3)CS[C@H]12)c1csc(N)n1)C(=O)O; assay: as §1; settings: JM109
[25] = substrate: CC1(C)S[C@@H]2[C@H](NC(=O)[C@H](C(=O)O)c3ccsc3)C(=O)N2[C@H]1C(=O)O; assay: as §1; settings: JM109
[26] = substrate: CCN1CCN(C(=O)N[C@@H](C(=O)N[C@@H]2C(=O)N3[C@@H]2SC(C)(C)[C@@H]3C(=O)O)c2ccccc2)C(=O)C1=O; assay: as §1; settings: JM109
[27] = substrate: CO/N=C(\C(=O)N[C@@H]1C(=O)N2C(C(=O)O)=C(COC(C)=O)CS[C@H]12)c1csc(N)n1; assay: as §1; settings: JM109
[28] = substrate: CO/N=C(\C(=O)N[C@@H]1C(=O)N2C(C(=O)O)=C(COC(N)=O)CS[C@H]12)c1ccco1; assay: as §1; settings: JM109
[29] = substrate: CO/N=C(\C(=O)N[C@@H]1C(=O)N2C(C(=O)O)=C(CSc3nc(=O)c(O)nn3C)CS[C@H]12)c1csc(N)n1; assay: as §1; settings: JM109
[30] = substrate: CO/N=C(\C(=O)N[C@@H]1C(=O)N2C(C(=O)[O-])=C(C[N+]3(C)CCCC3)CS[C@H]12)c1csc(N)n1; assay: as §1; settings: JM109
[31] = substrate: CO[C@@]1(NC(=O)Cc2cccs2)C(=O)N2C(C(=O)O)=C(COC(N)=O)CS[C@@H]21; assay: as §1; settings: JM109
[32] = substrate: C[C@H]1[C@H](NC(=O)/C(=N\OC(C)(C)C(=O)O)c2csc(N)n2)C(=O)N1S(=O)(=O)O; assay: as §1; settings: JM109
[33] = substrate: CC(=O)OCC1=C(C(=O)O)N2C(=O)[C@@H](NC(=O)Cc3cccs3)[C@H]2SC1; assay: (§2) Ratio of Kcat to Km for Escherichia coli beta-lactamase SHV-11; settings: JM109
[34] = substrate: CC1(C)S[C@@H]2[C@H](NC(=O)[C@H](C(=O)O)c3ccsc3)C(=O)N2[C@H]1C(=O)O; assay: as §2; settings: JM109
[35] = substrate: CCN1CCN(C(=O)N[C@@H](C(=O)N[C@@H]2C(=O)N3[C@@H]2SC(C)(C)[C@@H]3C(=O)O)c2ccccc2)C(=O)C1=O; assay: as §2; settings: JM109
[36] = substrate: CO/N=C(\C(=O)N[C@@H]1C(=O)N2C(C(=O)O)=C(COC(N)=O)CS[C@H]12)c1ccco1; assay: as §2; settings: JM109
[37] = substrate: CO/N=C(\C(=O)N[C@@H]1C(=O)N2C(C(=O)O)=C(CSc3nc(=O)c(O)nn3C)CS[C@H]12)c1csc(N)n1; assay: as §2; settings: JM109

Molecule: CO/N=C(\C(=O)N[C@@H]1C(=O)N2C(C(=O)O)=C(COC(C)=O)CS[C@H]12)c1csc(N)n1 [CEFOTAXIME]
- MIC (Klebsiella pneumoniae [1]): ≤ 0.1 mg/L
- MIC (Escherichia coli [2]): ≤ 0.1 mg/L
- kcat (Escherichia coli [3]): < 0.01 s⁻¹

Molecule: CC(C)(O/N=C(\C(=O)N[C@@H]1C(=O)N2C(C(=O)[O-])=C(C[n+]3ccccc3)CS[C@H]12)c1csc(N)n1)C(=O)O
- kcat (Escherichia coli [3]): < 0.01 s⁻¹

Molecule: CC1(C)S[C@@H]2[C@H](NC(=O)[C@H](N)c3ccccc3)C(=O)N2[C@H]1C(=O)O [AMPICILLIN]
- MIC (Klebsiella pneumoniae [1]): > 4100 mg/L
- MIC (Escherichia coli [4]): 1020 mg/L (≈ 2930 µM)
- MIC (Escherichia coli [5]): 2050 mg/L (≈ 5860 µM)
- MIC (Escherichia coli [6]): 1020 mg/L (≈ 2930 µM)
- MIC (Escherichia coli [2]): 4 mg/L (≈ 11.4 µM)
- MIC (Escherichia coli [7]): 128 mg/L
- MIC (Escherichia coli [8]): 128 mg/L
- MIC (Escherichia coli [9]): 64 mg/L
- MIC (Klebsiella pneumoniae [10]): 128 mg/L (≈ 366 µM)

Molecule: CC(=O)OCC1=C(C(=O)O)N2C(=O)[C@@H](NC(=O)Cc3cccs3)[C@H]2SC1 [CEPHALOTHIN]
- MIC (Klebsiella pneumoniae [1]): 8 mg/L (≈ 20.2 µM)
- MIC (Escherichia coli [4]): 8 mg/L (≈ 20.2 µM)
- MIC (Escherichia coli [5]): 8 mg/L (≈ 20.2 µM)
- MIC (Escherichia coli [6]): 8 mg/L (≈ 20.2 µM)
- MIC (Escherichia coli [2]): 4 mg/L (≈ 10.1 µM)
- Km (Escherichia coli [3]): 20 µM
- kcat (Escherichia coli [3]): 0.1 s⁻¹
- kcat/Km (Escherichia coli [11]): 5000 M⁻¹ s⁻¹

Molecule: CO/N=C(\C(=O)N[C@@H]1C(=O)N2C(C(=O)O)=C(COC(N)=O)CS[C@H]12)c1ccco1
- kcat (Escherichia coli [3]): < 0.01 s⁻¹

Molecule: CO[C@@]1(NC(=O)Cc2cccs2)C(=O)N2C(C(=O)O)=C(COC(N)=O)CS[C@@H]21
- kcat (Escherichia coli [3]): < 0.01 s⁻¹

Molecule: CO/N=C(\C(=O)N[C@@H]1C(=O)N2C(C(=O)O)=C(CSc3nc(=O)c(O)nn3C)CS[C@H]12)c1csc(N)n1
- kcat (Escherichia coli [3]): < 0.01 s⁻¹

Molecule: CCN1CCN(C(=O)N[C@@H](C(=O)N[C@@H]2C(=O)N3[C@@H]2SC(C)(C)[C@@H]3C(=O)O)c2ccccc2)C(=O)C1=O [PIPERACILLIN]
- MIC (Klebsiella pneumoniae [1]): 512 mg/L (≈ 989 µM)
- MIC (Escherichia coli [4]): 64 mg/L (≈ 124 µM)
- MIC (Escherichia coli [5]): 512 mg/L (≈ 989 µM)
- MIC (Escherichia coli [6]): 64 mg/L (≈ 124 µM)
- MIC (Escherichia coli [2]): 2 mg/L (≈ 3.86 µM)
- Km (Escherichia coli [3]): 50 µM
- kcat (Escherichia coli [3]): 50 s⁻¹
- kcat/Km (Escherichia coli [11]): 1e+06 M⁻¹ s⁻¹
- MIC (Klebsiella pneumoniae [12]): 4 mg/L
- MIC (Escherichia coli [13]): 2 mg/L
- MIC (Escherichia coli [14]): 2 mg/L
- MIC (Escherichia coli [15]): 1 mg/L
- MIC (Escherichia coli [16]): 1 mg/L

Molecule: CC1(C)[C@H](C(=O)O)N2C(=O)C[C@H]2S1(=O)=O [SULBACTAM]
- IC50 [17]: 0.3 µM

Molecule: C[C@H]1[C@H](NC(=O)/C(=N\OC(C)(C)C(=O)O)c2csc(N)n2)C(=O)N1S(=O)(=O)O
- kcat (Escherichia coli [3]): < 0.01 s⁻¹

Molecule: CC1(C)S[C@@H]2[C@H](NC(=O)[C@H](C(=O)O)c3ccsc3)C(=O)N2[C@H]1C(=O)O [TICARCILLIN]
- MIC (Klebsiella pneumoniae [1]): > 4100 mg/L
- MIC (Escherichia coli [4]): 2050 mg/L (≈ 5330 µM)
- MIC (Escherichia coli [5]): > 4100 mg/L
- MIC (Escherichia coli [6]): 2050 mg/L (≈ 5330 µM)
- MIC (Escherichia coli [2]): 4 mg/L (≈ 10.4 µM)
- Km (Escherichia coli [3]): 450 µM
- kcat (Escherichia coli [3]): 30 s⁻¹
- kcat/Km (Escherichia coli [11]): 70000 M⁻¹ s⁻¹
- MIC (Klebsiella pneumoniae [18]): 1020 mg/L
- MIC (Escherichia coli [19]): 2 mg/L
- MIC (Escherichia coli [20]): 256 mg/L
- MIC (Escherichia coli [21]): 128 mg/L
- MIC (Escherichia coli [22]): 2 mg/L

Molecule: CC1(C)S[C@@H]2[C@H](NC(=O)[C@H](N)c3ccc(O)cc3)C(=O)N2[C@H]1C(=O)O [AMOXICILLIN]
- MIC (Klebsiella pneumoniae [1]): > 4100 mg/L
- MIC (Escherichia coli [4]): 2050 mg/L (≈ 5600 µM)
- MIC (Escherichia coli [5]): 4100 mg/L (≈ 11200 µM)
- MIC (Escherichia coli [6]): 4100 mg/L (≈ 11200 µM)
- MIC (Escherichia coli [2]): 4 mg/L (≈ 10.9 µM)
- MIC (Klebsiella pneumoniae [18]): 4100 mg/L
- MIC (Escherichia coli [19]): 2 mg/L
- MIC (Escherichia coli [20]): 512 mg/L
- MIC (Escherichia coli [21]): 256 mg/L
- MIC (Escherichia coli [22]): 2 mg/L

Molecule: C[C@@H](O)[C@H]1C(=O)N2C(C(=O)O)=C(SCCNC=N)C[C@H]12 [IMIPENEM ANHYDROUS]
- MIC (Klebsiella pneumoniae [1]): ≤ 0.1 mg/L
- MIC (Escherichia coli [2]): ≤ 0.1 mg/L

Molecule: CO/N=C(\C(=O)N[C@@H]1C(=O)N2C(C(=O)[O-])=C(C[N+]3(C)CCCC3)CS[C@H]12)c1csc(N)n1
- MIC (Klebsiella pneumoniae [1]): ≤ 0.1 mg/L
- MIC (Escherichia coli [2]): ≤ 0.1 mg/L
- kcat (Escherichia coli [3]): < 0.01 s⁻¹

B1: Beta-lactamase SHV-11 (Escherichia coli), Q7X575 (protein)
chain: MRYIRLCIISLLATLPLAVHASPQPLEQIKQSESQLSGRVGMIEMDLASGRTLTAWRADERFPMMSTFKVVLCGAVLARVDAGDEQLERKIHYRQQDLVDYSPVSEKHLADGMTVGELCAAAITMSDNSAANLLLATVGGPAGLTAFLRQIGDNVTRLDRWETELNEALPGDARDTTTPASMAATLRKLLTSQRLSARSQRQLLQWMVDDRVAGPLIRSVLPAGWFIADKTGAGERGARGIVALLGPNNKAERIVVIYLRDTPASMAERNQQIAGIGAALIEHWQR
- Km [23]: 50 µM
- kcat [23]: 0.5 s⁻¹
- kcat [24]: < 0.01 s⁻¹
- Km [25]: 20 µM
- Km [26]: 40 µM
- kcat [26]: 30 s⁻¹
- kcat [27]: < 0.01 s⁻¹
- Km [28]: 200 µM
- kcat [28]: 0.05 s⁻¹
- Km [29]: 300 µM
- kcat [29]: 0.01 s⁻¹
- kcat [30]: < 0.01 s⁻¹
- kcat [31]: < 0.01 s⁻¹
- kcat [32]: < 0.01 s⁻¹
- kcat/Km [33]: 10000 M⁻¹ s⁻¹
- kcat/Km [34]: 100000 M⁻¹ s⁻¹
- kcat/Km [35]: 750000 M⁻¹ s⁻¹
- kcat/Km [36]: 250 M⁻¹ s⁻¹
- kcat/Km [37]: 350000 M⁻¹ s⁻¹
